Results: patent publication US20190025313A1, “TREATMENT OF TUMORS INCORPORATING MUTANT ISOCITRATE DEHYDROGENASE” (Agios Pharmaceuticals, Inc., priority 2015, published 2019)

What was measured:
Assay type in all cases: cell-based
mIDH2 TF1 cells = assay: Metabolic activity (ATP fold-change) and rescue in mIDH2 TF1 cells; details: for drop in metabolic activity / rescue of brequinar-induced drop in metabolic activity: Brequinar 2 μM; for drop in metabolic activity: ATP fold-change day 3 over day 0
Procedure: (§1) TF1-pLVX (wildtype) cells were pLVX plated at 20 k/ml, 90 μl/well while TF1/R132H27 (mIDH1) and TF1/R140Q11 (mIDH2) cells were plated at 80 k/ml, 90 μl/well in RPMI, 10% FBS, G418 and GM-CSF. Test compound was added on day 0 and CellTiter-Glo, assay (Promega) was performed on day 3/4 and 7. Medium was not changed during 7-day culture.
(§2) Data was expressed as ATP fold-change: day 3 over day 0.

mIDH1 TF1 cells = assay: Metabolic activity (ATP fold-change) and rescue in mIDH1 TF1 cells; details: for drop in metabolic activity / rescue of brequinar-induced drop in metabolic activity: Brequinar 2 μM; for drop in metabolic activity: ATP fold-change day 3 over day 0
Procedure: as §1, §2

TF1 cells [1] = assay: Proliferation assay, cell line not specified (IC90 at day 7); details: Homo sapiens, TF-1, 168 h, cell line not stated
Procedure: as §1, §2

[2] = test system: TF1/R132H27 (mIDH1) cells; assay: Proliferation assay (CellTiter-Glo) of mutant IDH1 TF1 cells; details: Homo sapiens, TF-1, mutant IDH1 (R132H) TF1 cells, read-out: IC50, inhibition of proliferation
Procedure: (§3) Proliferation Assay of Wild Type and Mutant IDH Cell Lines
as §1

[3] = test system: TF1/R140Q11 (mIDH2) cells; assay: Proliferation assay (CellTiter-Glo) of mutant IDH2 TF1 cells; details: Homo sapiens, TF-1, mutant IDH2 (R140Q) TF1 cells, read-out: IC50, inhibition of proliferation
Procedure: as §3, §1

TF1 cells [4] = assay: Metabolic activity (ATP fold-change) in methotrexate treated TF1 cells; details: FIG. 3
Source text: Metabolic activity was rescued in mIDH1 and mIDH2 TF1 cells with 3-day folinic acid supplement.

[5] = 3-day folinic acid supplement, methotrexate treated, FIG. 3
[6] = uridine 8 μM, 3-day supplement, FIG. 2A

## Nc1nc(=O)c2c([nH]1)NCC(CNc1ccc(C(=O)N[C@@H](CCC(=O)O)C(=O)O)cc1)N2C=O (mixture of isomers) [folinic acid]
mIDH2 TF1 cells; [5]
  rescue of methotrexate-induced drop in metabolic activity: rescued
mIDH1 TF1 cells; [5]
  rescue of methotrexate-induced drop in metabolic activity: rescued

## Cc1c(-c2ccc(-c3ccccc3F)cc2)nc2ccc(F)cc2c1C(=O)O [Brequinar, brequinar]
mIDH2 TF1 cells; FIG. 2A
  drop in metabolic activity: 52%
mIDH2 TF1 cells; FIG. 2B
  drop in metabolic activity: 47%
TF1 cells [1]
  IC90: ~2000 nM
[2]
  IC50: 1300 nM
mIDH1 TF1 cells; FIG. 2A
  drop in metabolic activity: 73%
mIDH1 TF1 cells; FIG. 2B
  drop in metabolic activity: 77%
[3]
  IC50: 1600 nM

## CN(Cc1cnc2nc(N)nc(N)c2n1)c1ccc(C(=O)N[C@@H](CCC(=O)O)C(=O)O)cc1 [methotrexate]
TF1 cells [4]
  metabolic activity expressed as ATP fold-change (day 3 over day 0): drop in metabolic activity

## O=c1ccn([C@@H]2O[C@H](CO)[C@@H](O)[C@H]2O)c(=O)[nH]1 [uridine]
mIDH2 TF1 cells; [6]
  rescue of brequinar-induced drop in metabolic activity: rescued
mIDH2 TF1 cells; uridine 1,000 μM, FIG. 2B
  rescue of brequinar-induced drop in metabolic activity: rescued
mIDH1 TF1 cells; [6]
  rescue of brequinar-induced drop in metabolic activity: rescued
mIDH1 TF1 cells; uridine 1,000 μM, FIG. 2B
  rescue of brequinar-induced drop in metabolic activity: rescued
